These results are taken from patent US20180354921A1, “SUBSTITUTED OXADIAZOLES FOR COMBATING PHYTOPATHOGENIC FUNGI” (BASF SE, priority 2015, published 2018).

The term melting point denotes the temperature of the solid-liquid transition.

The molecule `O=C(Cc1ccccc1)Nc1ccc(-c2noc(C(F)(F)F)n2)cc1` [Ex-1, 2-phenyl-N-[4-[5-(trifluoromethyl)-1,2,4-oxadiazol-3-yl]phenyl]acetamide] returned a melting point of 198 °C.
